According to US10912760B1, “Method of inhibiting cancer metastasis” (Chung Shan Medical University, priority 2019, dated 2021):

What was measured:
[1] = tested on: colon cancer cells (DLD-1, SW480 and SW620); experiment: Soft agar colony formation assay; format: cell-based, human; conditions: 1 week
Protocol: FIG. 1E: Effect of Camphorataimide B on colony formation of colon cancer cells. The three colon cancer cells were pretreated with indicated concentration of Camphorataimide B for 24 hours, seeded on soft agar plates, and then incubated for one week. After the treatments, the number of colonies was quantitated. Quantitative results were presented as means±SD. Three independent experiments were performed for statistical analysis. * and ** represented P<0.01 and P<0.001 as compared to control, respectively.
Cells suspended in agarose medium (10% FBS and 0.3 agarose in medium) containing serial concentrations of Camphorataimide Bwere plated onto 6-well plate which was pre-coated with a layer of solidified agarose (10% FBS and 0.6% agarose in medium), and then incubated at 37° C. in a humidified atmosphere containing 5% CO2 for 1 week. At the end of incubation, cell colonies were fixed, stained with crystal violet, and then photographed using Nikon Eclipse TE2000-U microscope equipped with a Nikon Digital Camera DXM1200 and those colonies with size greater than 0.1 mm were counted.

[2] = tested on: colon cancer cells (DLD-1, SW480 and SW620); experiment: Cell migration assay (transwell); format: cell-based, human
Protocol: (§1) FIG. 1A: Effect of Camphorataimide B on migration and invasion of colon cancer cells. For migration assay, three colon cancer cells (DLD-1, SW480 and SW620) were pretreated with the indicated concentrations of Camphoratamide B for 24 hours, seeded onto transwell inserts, and then incubated for 12 hours. For invasion assay, the three colon cancer cells were pretreated with the indicated concentrations of Camphorataimide B for 24 hours, seeded onto Matrigel coated transwell inserts, and then incubated for 16 hours. After the treatments, numbers of cell on the lower surface membrane were stained, photographed and counted for quantitation of migrated and invaded cells.
(§2) FIG. 1B: Quantitation of effect of Camphorataimide B on migration and invasion of colon cancer cells. Quantitative results were presented as means±SD. Three independent experiments were performed for statistical analysis. * and ** represented P<0.01 and P<0.001 as compared to control, respectively.
(§3) Cells were pretreated with Camphorataimide B for 24 hours, harvested and then seeded on to 24-well cell culture inserts (8 μm pore size, Millipore). […] The stained cells were photographed and quantified form five random fields under microscopic examination. […] Cells invaded into the lower surface of the insert were quantitated as described earlier.

[3] = tested on: Luciferase expressing DLD-1 cells; experiment: In vivo xenograft mice model: oral treatment after Luc-DLD-1 injection; design: species or system Balb/c nude mice
Protocol: Luciferase expressing DLD-1 cells were suspended in phosphate buffered saline and injected into the spleen and peritoneal site of 5-week-old male Balb/c nude mice, respectively. After one week, the mice were orally administrated with 10 or 20 mg/kg Camphorataimide B or saline vehicle for one month (five mice for each group). IVIS luciferase in vivo images of liver and abdominal metastasis burden were monitored using bioluminescent imaging (BLI). Data represented mean±SD. * and ** represented P<0.01 and P<0.001 between the indicated groups, respectively.
FIG. 2G: Camphorataimide B suppressed hepatic and abdominal metastasis of DLD-1 cells in in vivo xenograft mice model. Luciferase expressing DLD-1 cells were suspended in phosphate buffered saline and injected into the spleen and peritoneal site of Balb/c nude mice, respectively. After one week, the mice were orally administrated with 10 or 20 mg/kg Camphorataimide B or saline vehicle (five mice for each group). After one month, the mice were sacrificed and the tissues were obtained and photographed.
FIG. 2H: Quantitation of results of FIG. 2G. Luciferase expressing DLD-1 cells were suspended in phosphate buffered saline and injected into the spleen and peritoneal site of Balb/c nude mice, respectively. After one week, the mice were orally administrated with 10 or 20 mg/kg Camphorataimide B or saline vehicle (five mice for each group). After 35 days, the mice were sacrificed and photographed. Total weight of tumor foci from the metastatic tissues were presented and quantitated. * and ** represented P<0.01 and P<0.001 between the indicated groups, respectively.
(§4) Male Balb/c nude mice aged four weeks were purchased from National Laboratory Animal Center of Taiwan (Taipei City, Taiwan) and maintained under supervision of the Institutional Animal Care and Use Committee at Chung Shan Medical University. […] The liver metastasis burden was monitored weekly by bioluminescence imaging (BLI). […]

[4] = tested on: colon cancer cells (DLD-1, SW480 and SW620); experiment: Cell adhesion assay; format: cell-based, human; conditions: pretreated 24 hours, Matrigel coated plates, 8 hours
Protocol: FIG. 1C: Effect of Camphorataimide B on adhesion of colon cancer cells. The three colon cancer cells were pretreated with the indicated concentrations of Camphorataimide B for 24 hours, seeded on a matrix coated monolayer dish, and then incubated for 8 hours. After washing with PBS, the attached cells were photographed and quantitated.
FIG. 1D: Quantitation of effect of Camphorataimide B on adhesion of colon cancer cells. Quantitative results were presented as means±SD. Three independent experiments were performed for statistical analysis. * and ** represented P<0.01 and P<0.001 as compared to control, respectively.
Cells were incubated with serial concentration of Camphorataimide B in a complete medium for 24 hours, transferred in to 12-well Matrigel coated plates (10^5 cells per well), and incubated at 37° C. for 8 hours. After the incubation, non-adherent cells were removed by PBS washing and the attached cells were photographed and quantitated using a cell counter.

[5] = tested on: DLD-1 cells; experiment: Ex vivo xenograft mice model: pretreated DLD-1 cells injected into spleen and peritoneal site; format: in vivo, Balb/c nude mice
Protocol: Luciferase expressing DLD-1 cells were pretreated with or without 30 μM Camphorataimide B for 24 hours, and then injected into the abdomen and spleen of Balb/c nude mice (five mice for each group), 35 days after implantation, the representative ex vivo images for liver and abdominal metastasis burden in xenografted animals were monitored using bioluminescent imaging (BLI).
FIG. 2B: Quantitation of results of FIG. 2A. Luciferase expressing DLD-1 cells were pretreated with or without 30 μM Camphorataimide B for 24 hours, and then injected into the abdomen and spleen of Balb/c nude mice. After 35 days implantation, the mice were photographed and tumor metastatic capability was analyzed. * and ** represented P<0.01 and P<0.001 as compared to untreated group, respectively.
FIG. 2C: Camphorataimide B suppressed hepatic and abdominal metastasis of DLD-1 cells in ex vivo xenograft mice model. DLD-1 cells were pretreated with or without 30 μM Camphorataimide B for 24 hours, and then spleeny and intraperitoneally injected into Balb/c mice, respectively. After 35 days, the mice were sacrificed and the tissues were obtained and photographed.
FIG. 2D: Quantitation of results of FIG. 2C. DLD-1 cells were pretreated with or without 30 μM Camphorataimide B for 24 hours, and then spleeny and intraperitoneally injected into Balb/c mice, respectively. After 35 days, the mice were sacrificed and photographed. Total weight of tumor foci from the metastatic tissues were presented and quantitated. *, P<0.01 and P<0.001 between the indicated groups.
FIG. 2E: Camphorataimide B suppressed metastasis in ex vivo xenograft mice model. […]
as §4

[6] = tested on: F-actin in colon cancer cells (DLD-1, SW480 and SW620); experiment: Immunofluorescence (phalloidin) staining of F-actin cytoskeleton; format: cell-based, human; conditions: confocal microscope, compared to control
Protocol: FIG. 1F: Effect of Camphorataimide B on cytoskeleton structure of colon cancer cells. The treated cells were seeded on a matrix-coated dish, and then F-actin (red) was detected by immunofluorescence staining, while the nuclei (blue) were detected by DAPI staining. Fluorescent images were acquired by using confocal microscopy. Scale bars, […].
Adherent cells were fixed on the glass slides using 4% ice-cold formaldehyde and reacted with blocking buffer and 0.5% Triton X-100 for 1 hour at room temperature. The reacted cells were incubated with primary antibodies overnight at 4° C. The bound primary antibodies were detected using Alexa Fluor-labeled secondary antibody (Jackson ImmunoResearch Laboratories, West Grove, Pa., USA). Alexa Fluor-conjugated phalloidin (Cell Signaling) was used for detection of polymerized F-actin microfilaments. Fluorescence image was acquired by using a laser scanning confocal microscope system (Zeiss 510 meta, Zeiss, Oberkochen, Germany).

[7] = tested on: breast cancer cells; conditions: reported; cited from earlier work
[8] = tested on: colon cancer cells (DLD-1, SW480 and SW620); experiment: Cell invasion assay (Matrigel coated transwell); format: cell-based, human
Protocol: as §1, §2, §3

[9] = 20 and 30 μM, P<0.01 as compared to control

What does the source list for `CC(C)=CCOc1ccc(C2=C(CC(C)C)C(=O)NC2=O)cc1` [Camphorataimide B]?
colony numbers [1]: significantly reduced; inhibition of migration [2, 9]: significant; migration of colon cancer cells ([2]; pretreated 24 hours, indicated concentrations, transwell 12 hours): dose-dependently inhibited; tumor size by bioluminescent imaging ([3]; oral 10 and 20 mg/kg every three days for 1 month): smaller tumors than tumor group; tumor growth and metastatic ability ([3]; oral 10 and 20 mg/kg every three days for 1 month, versus untreated tumors): grew slowly and less metastatic ability than untreated tumors; increased gross weight of tumor ([3]; oral 10 and 20 mg/kg every three days, after 35 days): notably inhibited; adherent cell numbers [4]: significantly reduced; attachment to colon tissue, number and size of tumors ([5]; DLD-1 cells pretreated with 30 μM for 24 hours, after 35 days): rarely attached to colon tissue and formed fewer number and smaller size of tumors; hepatic and abdominal metastatic lesion (hematoxylin and eosin staining) ([5]; DLD-1 cells pretreated with 30 μM for 24 hours, day 35, compared to untreated cells): significantly diminished; liver and abdominal metastasis burden (bioluminescent imaging) ([5]; Luc-DLD-1 cells pretreated with 30 μM for 24 hours, 35 days after implantation): suppressed liver and abdominal metastasis; regular architecture and expression level of F-actin [6]: disrupted and decreased; tumor growth in breast cancer cells [7]: can inhibit tumor growth; inhibition of invasiveness [8, 9]: significant; invasiveness of colon cancer cells ([8]; pretreated 24 hours, indicated concentrations, Matrigel transwell 16 hours): dose-dependently inhibited
